The target in one test is T1, GSPT1 (Homo sapiens, UniProt P15170+Q96SW2).
T1 construct: endogenously expressing GSPT1 with HiBiT fusion tag via CRISPR; endogenous in cells; host or cells: 293T.114 (HiBiT-GSPT1), CRISPR knock-in, generated in house
In words: GSPT1 degradation assay, HiBiT method (Nano-Glo HiBiT Lytic Assay). It is filed as cell-based. Particulars: 293T.114 (HiBiT-GSPT1) cells, 6 hours. The method, then: Example 62 GSPT1 Degradation Assay
DMEM no-phenol red medium and fetal bovine serum (FBS) were purchased from Gibco (Grand Island, NY, USA). Nano-Glo® HiBiT Lytic Assay System was purchased from Promega (Madison, WI, USA). 293T.114 (HiBiT-GSPT1) cell line was generated in house, endogenously expressing GSPT1 with HiBiT fusion tag via CRISPR. Cell culture flasks and 384-well microplates were acquired from VWR (Radnor, PA, USA).
GSPT1 Degradation Analysis
(§1) GSPT1 degradation was determined based on quantification of luminescent signal using Nano-Glo® HiBiT Lytic Assay kit. Test compounds were added to the 384-well plate from a top concentration of 10 µM with 11 points, half log titration in duplicates. 293T.114 cells were added into 384-well plates at a cell density of 6000 cells per well. The plates were kept at 37° C. with 5% CO2 for 6 hours. The cells treated in the absence of the test compound were the negative control and the cells without Nano-Glo® HiBiT Lytic reagent were the positive control. After 6-hour incubation, Nano-Glo® HiBiT Lytic Assay reagents were added to the designated wells. Luminescence was acquired on EnVision™ Multilabel Reader (PerkinElmer, Santa Clara, CA, USA).

For a further test, the target named is T2, IKZF2 (Homo sapiens, UniProt Q96SW2+Q9UKS7).
T2 construct: endogenously expressing IKZF2 with HiBiT fusion tag via CRISPR; host or cells: JURKAT.21 (IKZF2-HiBiT), CRISPR knock-in
In words: IKZF2 degradation assay, HiBiT method (Nano-Glo HiBiT Lytic Assay). It is filed as cell-based. Particulars: JURKAT.21 (IKZF2-HiBiT) cells.
Text: Example 61 IKZF2 Degradation Assay
RPMI 1640 Medium without phenol red and fetal bovine serum (FBS) were purchased from Gibco (Grand Island, NY, USA). Nano-Glo® HiBiT Lytic Assay System was purchased from Promega (Madison, WI, USA). JURKAT.21 (IKZF2-HiBiT) cell line, endogenously expressing IKZF2 with HiBiT fusion tag via CRISPR, was purchasing from Synthego (Menlo Park, CA, USA). Cell culture flasks and 384-well microplates were acquired from VWR (Radnor, PA, USA).
IKZF2 Degradation Analysis
as §1, with “IKZF2” for “GSPT1”, “JURKAT.216” for “293T.114”, “5000” for “6000”, “6 or 24” for “6”, “6-hour or 24-hour” for “6-hour”, “cells.” for “designated wells.”
In general terms: The HiBiT peptide binds its large partner to form an active luciferase.

[1] abbreviates: 6 hours, read-out: HiBiT-Degradation JURKAT.21 IKZF2 6 hours DC50.
The mark [2] stands for this setting: 6 hours, read-out: HiBiT-Degradation JURKAT.21 IKZF2 6 hours Emax.

Like-named read-outs stand apart in the source and are kept apart here.

In general, DC50 refers to the concentration at which degradation of the target reaches its halfway point. One may read the Emax as the size of the effect at its maximum, as opposed to the concentration needed.

T2 sequence (Q9UKS7 whole entry, the tested form may be a part): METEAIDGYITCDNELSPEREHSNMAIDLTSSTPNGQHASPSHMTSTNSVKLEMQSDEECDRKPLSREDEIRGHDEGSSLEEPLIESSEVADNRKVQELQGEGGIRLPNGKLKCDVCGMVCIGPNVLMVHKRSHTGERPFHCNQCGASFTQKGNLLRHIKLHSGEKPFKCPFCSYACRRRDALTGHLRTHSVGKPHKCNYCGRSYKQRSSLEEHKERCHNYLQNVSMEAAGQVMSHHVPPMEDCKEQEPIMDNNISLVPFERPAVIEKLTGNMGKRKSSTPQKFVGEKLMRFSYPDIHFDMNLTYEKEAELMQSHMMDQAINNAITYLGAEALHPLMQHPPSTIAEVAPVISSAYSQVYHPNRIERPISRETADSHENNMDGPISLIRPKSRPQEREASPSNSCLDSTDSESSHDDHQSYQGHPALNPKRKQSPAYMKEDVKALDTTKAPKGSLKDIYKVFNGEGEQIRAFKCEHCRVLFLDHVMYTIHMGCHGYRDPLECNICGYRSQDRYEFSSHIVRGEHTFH
T2 sequence (Q96SW2 whole entry, the tested form may be a part): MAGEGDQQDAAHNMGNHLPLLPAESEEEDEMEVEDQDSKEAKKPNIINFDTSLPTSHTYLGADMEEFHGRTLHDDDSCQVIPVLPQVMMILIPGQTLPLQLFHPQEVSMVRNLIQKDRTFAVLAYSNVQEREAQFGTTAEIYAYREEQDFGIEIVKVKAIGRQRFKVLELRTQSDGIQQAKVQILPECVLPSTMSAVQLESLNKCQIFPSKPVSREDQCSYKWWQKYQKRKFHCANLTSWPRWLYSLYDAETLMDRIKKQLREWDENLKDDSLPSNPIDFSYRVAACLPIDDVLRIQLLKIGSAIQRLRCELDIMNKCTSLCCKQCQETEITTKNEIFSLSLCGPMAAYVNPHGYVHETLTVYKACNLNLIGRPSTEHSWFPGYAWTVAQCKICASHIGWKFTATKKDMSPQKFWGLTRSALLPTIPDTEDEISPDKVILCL
T2 sequence (Q16531 whole entry partner, the tested form may be a part): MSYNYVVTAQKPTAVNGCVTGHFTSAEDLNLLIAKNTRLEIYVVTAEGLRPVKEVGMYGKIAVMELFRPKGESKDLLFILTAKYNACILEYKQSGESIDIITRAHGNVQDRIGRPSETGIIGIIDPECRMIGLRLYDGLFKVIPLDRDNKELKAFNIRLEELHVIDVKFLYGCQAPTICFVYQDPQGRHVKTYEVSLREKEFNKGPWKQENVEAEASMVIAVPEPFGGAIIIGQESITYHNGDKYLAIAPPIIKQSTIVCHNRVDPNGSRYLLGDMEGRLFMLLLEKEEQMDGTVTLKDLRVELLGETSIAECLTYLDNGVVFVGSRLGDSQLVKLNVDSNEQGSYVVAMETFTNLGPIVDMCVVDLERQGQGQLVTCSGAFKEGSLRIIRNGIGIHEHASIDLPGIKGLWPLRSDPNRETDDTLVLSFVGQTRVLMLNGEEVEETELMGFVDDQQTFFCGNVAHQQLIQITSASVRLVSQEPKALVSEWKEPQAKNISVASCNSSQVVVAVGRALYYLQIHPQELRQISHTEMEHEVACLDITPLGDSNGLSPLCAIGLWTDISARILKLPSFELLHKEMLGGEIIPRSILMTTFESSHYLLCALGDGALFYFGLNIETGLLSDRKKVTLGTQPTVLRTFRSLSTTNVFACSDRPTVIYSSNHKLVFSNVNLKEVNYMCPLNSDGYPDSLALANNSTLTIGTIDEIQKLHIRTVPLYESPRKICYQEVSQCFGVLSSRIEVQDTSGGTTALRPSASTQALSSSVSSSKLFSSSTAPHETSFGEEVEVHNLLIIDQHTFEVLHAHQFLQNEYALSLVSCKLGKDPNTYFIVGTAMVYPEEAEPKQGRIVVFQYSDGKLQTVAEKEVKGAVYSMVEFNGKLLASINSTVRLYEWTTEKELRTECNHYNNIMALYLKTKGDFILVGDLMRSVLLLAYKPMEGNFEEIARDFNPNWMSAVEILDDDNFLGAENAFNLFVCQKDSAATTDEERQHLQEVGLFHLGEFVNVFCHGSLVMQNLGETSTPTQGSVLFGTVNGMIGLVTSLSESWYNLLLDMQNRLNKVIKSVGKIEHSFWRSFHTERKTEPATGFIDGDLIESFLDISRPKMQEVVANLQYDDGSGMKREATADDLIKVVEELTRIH
T1 sequence (P15170 whole entry, the tested form may be a part): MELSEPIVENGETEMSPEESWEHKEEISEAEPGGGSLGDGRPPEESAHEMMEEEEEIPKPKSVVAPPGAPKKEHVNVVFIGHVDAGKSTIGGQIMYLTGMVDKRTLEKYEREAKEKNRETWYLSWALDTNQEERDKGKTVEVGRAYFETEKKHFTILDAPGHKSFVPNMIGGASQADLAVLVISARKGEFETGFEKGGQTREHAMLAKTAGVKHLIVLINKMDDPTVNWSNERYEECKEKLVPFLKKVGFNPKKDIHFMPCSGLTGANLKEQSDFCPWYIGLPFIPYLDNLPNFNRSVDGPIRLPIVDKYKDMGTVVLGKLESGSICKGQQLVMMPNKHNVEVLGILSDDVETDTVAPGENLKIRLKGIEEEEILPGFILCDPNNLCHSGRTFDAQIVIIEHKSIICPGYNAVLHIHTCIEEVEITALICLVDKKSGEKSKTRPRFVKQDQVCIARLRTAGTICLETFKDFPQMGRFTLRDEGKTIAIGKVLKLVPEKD
T1 sequence (Q96SW2 whole entry, the tested form may be a part): as the sequence (Q96SW2 whole entry, the tested form may be a part) above
T1 sequence (Q16531 whole entry partner, the tested form may be a part): as the sequence (Q16531 whole entry partner, the tested form may be a part) above

For the compound `O=C1CCC(N2C(=O)c3ccc(N4CCN(Cc5ccccc5)CC4)c4nccc2c34)C(=O)N1` (stereo not shown) [Compound 120, 3-[18-(4-benzylpiperazin-1-yl)-24-oxo-26,30-diazatricyclododeca-5,7(19),8(26),17(20),18(21)-pentaen-30-yl]piperidine-2,6-dione], the DC50 at GSPT1 and on IKZF2 (setting [1]) was more than 10 µM throughout. For the same compound, the Emax on GSPT1 and on IKZF2 (setting [2]) was 60 to 95% throughout.
Take `CN1CCN(c2ccc3c4c(ccnc24)N(C2CCC(=O)NC2=O)C3=O)CC1` (stereo not shown) [Compound 121]: the DC50 on GSPT1 and on IKZF2 (setting [1]) was more than 10 µM throughout. For the same compound, the Emax is 60 to 95% on GSPT1 and more than 95% on IKZF2 (setting [2]).
Consider `CC(NC(=O)c1ccc2c3c(ccnc13)N(C1CCC(=O)NC1=O)C2=O)c1ccccc1` (stereo not shown) [Compound 122, 27-(2,6-dioxo-3-piperidyl)-20-oxo-N-(1-phenylethyl)-24,27-diazatricyclododeca-6,8(15),9(24),13(16),14(17)-pentaene-14-carboxamide], for which the DC50 at GSPT1 and at IKZF2 (setting [1]) was more than 10 µM in each case. Moreover, the Emax at GSPT1 and at IKZF2 (setting [2]) was 60 to 95% in each case.
In the case of `COc1ncc(CN2CCC(c3ccc4c5c(ccnc35)N(C3CCC(=O)NC3=O)C4=O)CC2)cn1` (stereo not shown) [Compound 127, 3-[14-[1-[(2-methoxypyrimidin-5-yl)methyl]-4-piperidyl]-24-oxo-26,31-diazatricyclododeca-1(14),2(15),3(16),4(26),18-pentaen-31-yl]piperidine-2,6-dione], the DC50 at GSPT1 and at IKZF2 (setting [1]) was more than 10 µM in each case. The Emax on GSPT1 is more than 95%; at IKZF2 (setting [2]), 60 to 95%.
`O=C1CCC(N2C(=O)c3ccc(C4CCN(Cc5cccc(S(=O)(=O)N6CCOCC6)c5)CC4)c4nccc2c34)C(=O)N1` (stereo not shown) [Compound 128, 3-[21-[1-[(3-morpholinosulfonylphenyl)methyl]-4-piperidyl]-29-oxo-31,35-diazatricyclododeca-3(21),4(22),5(23),6(31),24-pentaen-35-yl]piperidine-2,6-dione]: the DC50 on GSPT1 is more than 10 µM; on IKZF2 (setting [1]) it was more than 10 µM; at IKZF2 (24 hours, read-out: HiBiT-Degradation JURKAT.21 IKZF2 24 hours DC50) it was more than 10 µM. Also, the Emax on GSPT1 lay in the range of 60 to 95%; on IKZF2 (setting [2]), 60 to 95%; on IKZF2 (24 hours, read-out: HiBiT-Degradation JURKAT.21 IKZF2 24 hours Emax) it was 60 to 95%.

The values are drawn from patent US20230339902A1, “TRICYCLIC LIGANDS FOR DEGRADATION OF IKZF2 OR IKZF4” (C4 Therapeutics, Inc., priority 2020, published 2023).
